Test results taken from US20210052537A1, “COLITIS AMELIORATING AGENT” (ASTA PHARMACEUTICALS, CO., LTD., priority 2018, published 2021).
Where “and” joins values, the source holds several entries; their conditions need not be identical. Equal values may be shown once.

Test system: DSS-induced colitis
Experiment: DSS-induced colitis mouse model (experimental ulcerative colitis)
Type: in vivo
Set-up: Colon wet weight: unit not given here
Method: In this Example, mouse models to which dextran sulfate sodium salt (DSS) is used will be described as colitis models. When DSS is administered by being mixed in drinking water of the mouse, an experimental ulcerative colitis model similar to human ulcerative colitis in terms of symptoms such as suppression of body weight increase, blood in stools, and anemia and formation of colon erosion and further lacking intestinal lesion was build (Non-Patent Literature 3). A suppression effect of Compound X on colitis in such a model as the representative colitis model was examined. For the evaluation items, recovery from diarrhea and body weight loss by colitis, and the length and weight of the colon were examined as changes in colon properties, which are widely known to occur by DSS-induced colitis.
For treatment, C57BL/6J, male mice were purchased from CHARLES RIVER LABORATORIES JAPAN, INC. in accordance with previous literature (Non-Patent Literature 2) and 5-week old mice with no abnormal general conditions during quarantine and acclimation period were used for the experiment. After acclimation, the animals were divided in such a way as to be 1 mouse per cage. DSS used in the experiment having a molecular weight of from 36,000 to 50,000 Da was purchased from MP Bio Japan. DSS was added to tap water in such a way as to be 3% and suspended for causing colitis. The suspension was prepared once every 3 days and freely provided to each of the mice as water supply. A solution from which DSS was removed was provided as water supply to a non-pathological control group.
After group division, each of the test substances of Table 1 was suspended in a solution of 0.5% sodium carboxymethyl cellulose (hereinafter, CMC, Nacalai Tesque Inc.) in such a way as to be each treatment of Table 1 and orally administered once daily. […] These control groups, Groups 1 and 2, were orally administered, as the test substance, with the 0.5% CMC solution used as the medium.
Drinking water after the group division was typical water for drinking.
The test started with 6 mice in Group No. 1 and 10 mice each in Group Nos. 2 to 6.
Body weights were measured on the DSS administration starting day (day −5), DSS administration last day (day 0), on day 3, day 5, day 8, and day 10 of test substance administration.
The therapeutic effect was evaluated by observing changes in blood in stools caused by enteritis as the body weight recovery alone can be considered that the body weight increase might have been promoted simply by the growth. Mice feces were observed on the DSS administration starting day (day-5), DSS administration last day (day 0), on day 3, day 5, day 8, and day 10 of test substance administration and scored in accordance with the criteria of Table 2.
For evaluating the therapeutic effect of Compound X, the length and weight of the colon were measured. The mice were euthanized under anesthesia on day 10 of test substance administration and dissected to remove the colon. The removed colon was quickly measured for a length in a relaxed state. Subsequently, feces in the intestinal tract were removed and sufficiently washed with phosphate buffered saline (Wako Pure Chemical Industries, Ltd.) and measured for a wet weight.

[1] = DSS + 1 mg/kg/day oral, day 10, mean ± SD
[2] = DSS + 10 mg/kg/day oral, day 10, mean ± SD
[3] = DSS + 100 mg/kg/day oral, day 10, mean ± SD

`CC1=C(/C=C/C(C)=C/C=C/C(C)=C/C=C/C=C(C)/C=C/C=C(C)/C=C/C2=C(C)C(=O)[C@@H](OC(=O)CNC(=O)NCCCC(=O)O)CC2(C)C)C(C)(C)C[C@H](OC(=O)CNC(=O)NCCCC(=O)O)C1=O.NCCCC[C@H](N)C(=O)O.NCCCC[C@H](N)C(=O)O` [Compound X, 4-(3-{4-[18-(4(S)-[3-(3-Carboxypropyl)ureidoacetoxy]-2,6,6-trimethyl-3-oxocyclohexa-1-enyl)-3,7,12,16-tetramethyloctadeca-1(E),3(E),5(E),7(E),9(E),11(E),13(E),15(E),17(E)-nonaenyl]-3,5,5-trimethyl-2-oxocyclohex-3-enyl-1(S)-oxycarbonylmethyl}ureido)butyric acid dilysine salt] was tested, and the “Blood feces score versus DSS administration group” value (100 mg/kg/day oral, day 5 of test substance administration, in words) was “improved blood feces score”, the “Body weight recovery compared with the DSS administration only” value (100 mg/kg/day oral, in words) was “body weight recovery was even further significant” and the Body weight (DSS + 1 mg/kg/day oral, day 0 (DSS last day), mean ± SD) was 20.3 ± 0.8 g. For the same compound, the “Fecal scoring average value” (DSS + 1 mg/kg/day oral, day 0 (DSS last day), score 0-3, mean ± SD) was 1.2 ± 0.4, the “Fecal scoring average value” (DSS + 1 mg/kg/day oral, day 3, score 0-3, mean ± SD) was 1.7 ± 0.8 and the Body weight (DSS + 1 mg/kg/day oral, day 3 of administration, mean ± SD) was 14.7 ± 1.3 g. The Body weight (DSS + 1 mg/kg/day oral, day 5, mean ± SD) was 15.1 ± 1.5 g, the “Fecal scoring average value” (DSS + 1 mg/kg/day oral, day 5, score 0-3, mean ± SD) was 1.7 ± 0.6 and the Body weight (DSS + 1 mg/kg/day oral, day 8, mean ± SD) was 18.0 ± 2.4 g. The “Fecal scoring average value” (DSS + 1 mg/kg/day oral, day 8, score 0-3, mean ± SD) was 0.0 ± 0.0, the Body weight [1] was 19.4 ± 2.2 g and the Colon wet weight [1] was 269.0 ± 8.4. For the same compound, the “Fecal scoring average value” (DSS + 1 mg/kg/day oral, day 10, score 0-3, mean ± SD) was 0.0 ± 0.0, the Colon length (DSS + 1 mg/kg/day oral, day 10 of administration, mean ± SD, 1 mg/kg/day) was 6.72 cm and 6.72 ± 0.28 cm and the Body weight (DSS + 1 mg/kg/day oral, day −5 (DSS start, before test substance), C57BL/6J mice, mean ± SD) was 20.3 ± 0.9 g. The “Fecal scoring average value” (DSS + 1 mg/kg/day oral, day −5 (before test substance), score 0-3 per Table 2, mean ± SD) was 0.0 ± 0.0, the Body weight (DSS + 10 mg/kg/day oral, day 0 (DSS last day), mean ± SD) was 18.9 ± 1.1 g and the “Fecal scoring average value” (DSS + 10 mg/kg/day oral, day 0 (DSS last day), score 0-3, mean ± SD) was 1.2 ± 0.4. The Body weight (DSS + 10 mg/kg/day oral, day 3, mean ± SD) was 14.9 ± 1.4 g, the “Fecal scoring average value” (DSS + 10 mg/kg/day oral, day 3, score 0-3, mean ± SD) was 1.3 ± 0.5 and the Body weight (DSS + 10 mg/kg/day oral, day 5, mean ± SD) was 15.9 ± 1.9 g. The “Fecal scoring average value” (DSS + 10 mg/kg/day oral, day 5, score 0-3, mean ± SD) was 1.7 ± 0.5, the Body weight (DSS + 10 mg/kg/day oral, day 8, mean ± SD) was 18.5 ± 2.1 g and the “Fecal scoring average value” (DSS + 10 mg/kg/day oral, day 8, score 0-3, mean ± SD) was 0.0 ± 0.0. It also gave a Body weight [2] of 19.8 ± 1.7 g, a Colon length [2] of 6.32 ± 0.16 cm and a Colon wet weight [2] of 255.0 ± 12.4. The “Fecal scoring average value” (DSS + 10 mg/kg/day oral, day 10, score 0-3, mean ± SD) was 0.0 ± 0.0, the Body weight (DSS + 10 mg/kg/day oral, day −5 (DSS start, before test substance), mean ± SD) was 20.1 ± 0.9 g and the “Fecal scoring average value” (DSS + 10 mg/kg/day oral, day −5 (before test substance), score 0-3, mean ± SD) was 0.0 ± 0.0. The Body weight (DSS + 100 mg/kg/day oral, day 0 (DSS last day), mean ± SD) was 19.0 ± 1.0 g, the “Fecal scoring average value” (DSS + 100 mg/kg/day oral, day 0 (DSS last day), score 0-3, mean ± SD) was 1.0 ± 0.0 and the Body weight (DSS + 100 mg/kg/day oral, day 3, mean ± SD) was 15.2 ± 1.8 g. For the same compound, the “Fecal scoring average value” (DSS + 100 mg/kg/day oral, day 3, score 0-3, mean ± SD) was 1.7 ± 0.8, the Body weight (DSS + 100 mg/kg/day oral, day 5, mean ± SD) was 16.7 ± 2.2 g and the “Fecal scoring average value” (DSS + 100 mg/kg/day oral, day 5, score 0-3, mean ± SD) was 1.0 ± 0.0. The Body weight (DSS + 100 mg/kg/day oral, day 8, mean ± SD) was 19.8 ± 0.9 g, the “Fecal scoring average value” (DSS + 100 mg/kg/day oral, day 8, score 0-3, mean ± SD) was 0.0 ± 0.0 and the Colon wet weight (DSS + 100 mg/kg/day oral, day 10) was 238.6. The Body weight [3] was 21.0 ± 0.7 g, the Colon wet weight [3] was 238.6 ± 11.3 and the Colon length (DSS + 100 mg/kg/day oral, day 10, mean ± SD, 100 mg/kg/day) was 6.80 cm and 6.80 ± 0.12 cm. For the same compound, the “Fecal scoring average value” (DSS + 100 mg/kg/day oral, day 10, score 0-3, mean ± SD) was 0.0 ± 0.0, the Body weight (DSS + 100 mg/kg/day oral, day −5 (DSS start, before test substance), mean ± SD) was 20.1 ± 0.9 g and the “Fecal scoring average value” (DSS + 100 mg/kg/day oral, day −5 (before test substance), score 0-3, mean ± SD) was 0.0 ± 0.0. For the same compound, the “Colon length compared with DSS group” value (Group Nos. 3 to 5 (1, 10, 100 mg/kg/day) and Group No. 6 (50 mg/kg/day), in words) was “longer length of the colon than DSS group” and the “Colon wet weight compared with DSS group” value (all treated groups of Table 5, in words) was “suppressed weight increases compared with DSS group”.
